Read-outs that look alike come from different tables or passages of the source.
Tests used:
Stromelysin = biological target: T1, Stromelysin (Homo sapiens, UniProt P08254); test: stromelysin inhibition by linked hydroxamate-biaryl compounds; format: biochemical; settings: for IC50: Table 4, kind of constant not given
T1 construct: expression construct coding for amino acid residues 81-256 plus an initiating methionine; initiating methionine (N); made in house; host or cells: E. coli BL21(DE3)/pLysS, pET3d

[1] = biological target: T2, DNA-binding domain of the E2 protein (Human papillomavirus 31, UniProt P17383); test: two-dimensional 15N/1H NMR correlation titration, binding constants for two binding sites
T2 construct: made in house; host or cells: bacteria, T7 expression system
Description: Compounds from the database were screened in a similar manner for binding to the DNA-binding domain of the E2 protein. Those compounds had the structure II below, where R1-R4 and A are defined in Table 2. [drawing 5]
NMR experiments were performed at 29°C on a Bruker AMX500 NMR spectrometer equipped with a triple resonance probe and Bruker sample changer. The ^15N-/^1H HSQC spectra were acquired as 80 x 1024 complex points using sweep widths of 2000 Hz (^15N,t1) and 8333 Hz (^1H, t2). A delay of 1 second between scans and 4 scans per free induction decay were employed in the data collection. All NMR spectra were processed and analyzed on Silicon Graphics computers.
By monitoring the chemical shift changes as a function of ligand concentration, binding constants for the two binding sites were also measured. Table 2 […]

FKBP [2] = biological target: T3, FKBP (Homo sapiens, UniProt P62942); test: binding affinity by fluorescence titrations; parameters: made in house
FKBP [3] = biological target: T3, FKBP; test: two-dimensional 15N/1H NMR correlation titration, dissociation constant; format: binding; parameters: made in house; host or cells: recombinant
Description: The second step in the design process was the identification of a second ligand that bound to the target FKBP at a site different from the binding site of compound 29. This was accomplished by screening compounds for their ability to bind to FKBP in the presence of saturating amounts of the ascomycin fragment analog (compound 29). Details of procedures for this second identification step are as set forth in example 2.
In the second round of screening, binding was assayed both in the presence and in the absence of saturating amount of compound 29 (1 mM).
Various benzanilide compounds were tested for binding to FKBP at multiple ligand concentrations. The ^15N/^1H correlation spectra generated at each concentration were evaluated to quantify differences in the spectra as a function of compound concentration. A binding or dissociation constant (Kd) was calculated, using standard procedures well known in the art, from those differences. The values for R1-R4 in Table 5 refer to the corresponding positions in the structure III, above.

[4] = biological target: T4, catalytic domain of stromelysin (Homo sapiens, UniProt P08254); test: as above; format: binding
T4 construct: expression construct coding for amino acid residues 81-256 plus an initiating methionine; initiating methionine (N); made in house; host or cells: E. coli BL21(DE3)/pLysS, pET3d
Description: Binding or dissociation constants are measured by following the ^15N/^1H chemical shifts of the protein as a function of ligand concentration. A known concentration ([P]o) of the target molecule is mixed with a known concentration ([L]0) of a previously identified ligand and the two-dimensional ^15N/^1H correlation spectrum was acquired. From this spectrum, observed chemical shift values (δobs) are obtained. The process is repeated for varying concentrations of the ligand to the point of saturation of the target molecule, when possible, in which case the limiting chemical shift value for saturation (δsat) is measured.
In those situations where saturation of the target molecule is achieved, the dissociation constant for the binding of a particular ligand to the target molecule is calculated using the formula: KD = (([P]0−x)([L]0−x))/(x) [formula] where [P]0 is the total molar concentration of target molecule; [L]0 is the total molar concentration of ligand; and x is the molar concentration of the bound species. The value of x is determined from the equation: x = (δobs −δfree)/(Δ) [formula] where δfree is the chemical shift of the free species; δobs is the observed chemical shift; and Δ is the difference between the limiting chemical shift value for saturation (δsat) and the chemical shift value of the target molecule free of ligand (δfree).
The dissociation constant is then determined by varying its value until a best fitto the observed data is obtained using standard curve-fitting statistical methods. In the case where δsat is not directly known, both KD and δsat are varied and subjected to the same curve-fitting procedure.
The catalytic domain of stromelysin was prepared in accordance with the procedures of Example 1. The protein solutions used in the screening assay contained the uniformly ^15N-labeled catalytic domain of stromelysin (0.3 mM), acetohydroxamic acid (500 mM), CaCl2 (20 mM), and sodium azide (0.5%) in a H2O/D2O (9/1) TRIS buffered solution (50 mM, pH=7.0).
Two-dimensional ^15N/^1H NMR spectra were generated at 29°C on a Bruker AMX500 NMR spectrometer equipped with a triple resonance probe and Bruker sample changer. The ^15N/^1H HSQC spectra were acquired as 80 x 1024 complex points using sweep widths of 2000 Hz (^15N, t^1) and 8333 Hz (^1H, t2). A delay of 1 second between scans and 8 scans perfree induction decay(fid) were employed in the data collection. All NMR spectra were processed and analyzed on Silicon Graphics computers using in-house-written software.
A first two-dimensional ^15N/^1 H NMR correlation spectrum was acquired for the ^15N-labeled stromelysin target molecule as described above. The stromelysin target was then exposed to a database of test compounds. Stock solutions of the compounds were made at 100 mM and 1 M. In addition, a combination library was prepared that contained 8-10 compounds per sample at a concentration of 100 mM for each compound.
The NMR samples were prepared by adding 4 µl of the DMSO stock solution of the compound mixtures that contained each compound at a concentration of 100 mM to 0.4 ml H2O/D2O (9/1) buffered solution of the uniformly ^15N-labeled protein. The final concentration of each of the compounds in the NMR sample was about 1 mM.
Various biaryl compounds of structure I were tested for binding to stromelysin at differing concentrations. The ^15N/^1H spectra generated at each concentration were evaluated to quantify differences in the spectra as a function of compound concentration. A binding or dissociation constant (KD)was calculated, using standard procedures well known in the art, from those differences. The values for R1-R3 and A1-A3 in Table 1 refer to the corresponding positions in the structure I, above.
All NMR measurements were performed in the presence of 500 mM acetohydroxamic acid, except for the titration of acetohydroxamic acid itself. Dissociation constants were obtained from the dependence of the observed chemical shift changes upon added ligand. […]

[5] = biological target: T4, catalytic domain of stromelysin; test: enzymatic assay, cleavage of a fluorogenic substrate; format: biochemical
Description: In a first study, binding constants were determined, both by the NMR method of the present invention, and by a prior art enzymatic assay. The target molecule was the catalytic domain of stromelysin prepared in accordance with the procedures of Example 1. […] The KD values so obtained were compared to an inhibition constant KI as determined in an enzymatic assay.
The enzymatic assay measured the rate of cleavage of a fluorogenic substrate by following the fluorescence increase upon peptide cleavage which causes a separation between the fluorophore and quencher. Enzymatic activity was measured using a matrix of different concentrations of acetohydroxamic acid and biaryl compounds. The assay is a modification of the method described by H. Weingarten, et al. in Anal. Biochem., 147: 437-440 (1985) employing the fluorogenic substrate properties described by E. Matayoshi, et al. in Science: 247: 954-958 (1990).
Eight acetohydroxamic acid concentrations were used ranging from 0.0 to 1.0 M, and six compound concentrations were used, resulting in a total of 48 points. Individual compound concentration varied due to solubility and potency.
All NMR measurements were performed in the presence of 500 mM acetohydroxamic acid, except for the titration of acetohydroxamic acid itself. Dissociation constants were obtained from the dependence of the observed chemical shift changes upon added ligand. Inhibition constants were then obtained from the inhibition data using standard procedures.

[6] = amides of the DNA-binding site, read-out: DNA KD
[7] = amides of the β-barrel site, read-out: β-barrel KD
[8] = Table 1, biaryl compounds of structure I, differing concentrations, read-out: KD
[9] = Table 3, in the presence of 500 mM acetohydroxamic acid, read-out: NMR KD
[10] = fluorogenic substrate, matrix of acetohydroxamic acid and compound concentrations, read-out: Assay KI

T3 sequence (P62942 whole entry): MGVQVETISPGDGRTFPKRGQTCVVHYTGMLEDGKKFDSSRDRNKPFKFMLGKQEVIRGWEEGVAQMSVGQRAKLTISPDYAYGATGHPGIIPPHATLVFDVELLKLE
T1 sequence (P08254 98-273): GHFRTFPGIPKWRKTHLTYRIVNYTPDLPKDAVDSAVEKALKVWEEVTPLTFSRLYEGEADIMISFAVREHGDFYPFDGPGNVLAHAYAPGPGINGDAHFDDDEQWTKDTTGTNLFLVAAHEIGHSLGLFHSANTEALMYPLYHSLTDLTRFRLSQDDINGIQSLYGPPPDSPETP
T4 sequence (P08254 98-273): as above
T2 sequence (P17383 292-372): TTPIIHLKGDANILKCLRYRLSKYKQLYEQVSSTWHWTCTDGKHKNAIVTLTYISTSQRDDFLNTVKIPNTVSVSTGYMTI

Structure (SMILES): O=C(CCCCOc1ccc(-c2ccccc2)cc1)NO [Compound 23]
- inhibition at 100 µM (Stromelysin): 38%

Structure (SMILES): O=C(O)CCC(=O)c1ccc(Oc2ccccc2)cc1 [Compound 20]
- Kd [1, 6]: 2700 µM
- Kd [1, 7]: 4800 µM

Structure (SMILES): COc1cc(C(=O)C(=O)N2CCCC[C@H]2C(=O)OCCCOc2ccc(C(=O)Nc3ccc(O)cc3)cc2)cc(OC)c1OC
- Kd (FKBP [2]): 0.019 µM
- increase in potency over the ascomycin-fragment analog (compound 29) alone (FKBP [2]): 100 fold

Structure (SMILES): O=C(Nc1ccc(O)cc1)c1ccc(O)cc1 [Compound 33]
- Kd (FKBP [3]): 100 µM

Structure (SMILES): COc1ccc(-c2ccccc2)cc1N [Compound 6]
- Kd [4, 8]: 400 µM

Structure (SMILES): N#Cc1ccc(-c2ccc(OCCC(=O)NO)cc2)cc1 [Compound 25]
- IC50 (Stromelysin): 0.025 µM

Structure (SMILES): Oc1ccc(-c2ccc(O)cc2)cc1 [Compound 9]
- Kd [4, 8]: 10 µM
- Kd [4, 9]: 160 µM
- Ki [5, 10]: 700 µM

Structure (SMILES): O=C(O)C=Cc1ccc(-c2ccccc2)cc1 [Compound 18]
- Kd [1, 6]: 1200 µM
- Kd [1, 7]: 6200 µM

Structure (SMILES): O=C(Nc1ccc(O)cc1)c1ccccc1O [Compound 30]
- Kd (FKBP [3]): 800 µM

Structure (SMILES): CC(=O)Oc1ccc(-c2ccccc2)cc1 [Compound 8]
- Kd [4, 8]: 300 µM

Structure (SMILES): O=C(O)c1ccc(-c2ccccc2)cc1 [Compound 15]
- Kd [1, 6]: 2000 µM
- Kd [1, 7]: > 50000 µM

Structure (SMILES): Oc1ccc(-c2ccccc2)cc1 [Compound 11]
- Kd [4]: 300 µM

Structure (SMILES): O=C(Nc1ccccc1)c1ccccc1O [Compound 37]
- Kd (FKBP [3]): > 5000 µM

Structure (SMILES): OCc1ccc(-c2ccccc2)cc1 [Compound 2]
- Kd [4, 8]: 3200 µM

Structure (SMILES): O=C(CCOc1ccc(-c2ccccc2)cc1)NO [Compound 21]
- IC50 (Stromelysin): 0.31 µM

Structure (SMILES): COC(=O)[C@@H]1CCCCN1C(=O)C(=O)c1cc(OC)c(OC)c(OC)c1 [Compound 29]
- occupancy of the binding site (FKBP [3]; ligand concentrations of 1 mM): > 98%
- Kd (FKBP [2]): 2 µM

Structure (SMILES): Cc1cc(C(=O)Nc2ccc(O)cc2)ccc1O [Compound 35]
- Kd (FKBP [3]): 500 µM

Structure (SMILES): N#Cc1ccc(-c2ccc(OCCCC(=O)NO)cc2)cc1 [Compound 26]
- IC50 (Stromelysin): 3.4 µM

Structure (SMILES): N#Cc1ccc(-c2ccc(O)cc2)cc1 [Compound 12]
- Kd [4, 8]: 10 µM
- Kd [4, 9]: 20 µM
- Ki [5, 10]: 110 µM

Structure (SMILES): O=C(c1ccccc1)c1cccc(O)c1 [Compound 13]
- Kd [1, 6]: > 50000 µM
- Kd [1, 7]: 600 µM

Structure (SMILES): CC(CCc1ccc(Oc2ccccc2)cc1)CC(=O)O (stereo not drawn) [Compound 19]
- Kd [1, 6]: 500 µM
- Kd [1, 7]: 200 µM

Structure (SMILES): O=C(Nc1ccccc1)c1ccccc1 [Compound 36]
- Kd (FKBP [3]): > 5000 µM

Structure (SMILES): OCc1cccc(Oc2ccccc2)c1 [Compound 14]
- Kd [1, 6]: > 50000 µM
- Kd [1, 7]: 2000 µM

Structure (SMILES): O=C(O)Cc1ccc(-c2ccccc2)cc1 [Compound 17]
- Kd [1, 6]: 4200 µM
- Kd [1, 7]: 4900 µM

Structure (SMILES): O=C(O)c1ccc(-c2cc(Cl)cc(Cl)c2)cc1 [Compound 16]
- Kd [1, 6]: 100 µM
- Kd [1, 7]: > 50000 µM

Structure (SMILES): O=C(CCCOc1ccc(-c2ccccc2)cc1)NO [Compound 22]
- IC50 (Stromelysin): 110 µM

Structure (SMILES): c1ccc(-c2ccncc2)cc1 [Compound 7]
- Kd ([4]; read-out: KD): 200 µM
- Kd ([4]; read-out: NMR KD): 170 µM
- Ki ([5]; read-out: Assay KI): 320 µM

Structure (SMILES): N#Cc1ccc(-c2ccc(OCCCCC(=O)NO)cc2)cc1 [Compound 27]
- IC50 (Stromelysin): 3.5 µM

Structure (SMILES): O=C(Nc1ccc(O)cc1)c1ccccc1 [Compound 34]
- Kd (FKBP [3]): 600 µM

Structure (SMILES): c1ccc(-c2ccncn2)cc1 [Compound 4]
- Kd [4, 8]: 1600 µM
- Kd [4, 9]: 1600 µM
- Ki [5, 10]: 7400 µM

Structure (SMILES): O=C(CCCCCOc1ccc(-c2ccccc2)cc1)NO [Compound 24]
- inhibition at 100 µM (Stromelysin): 43%

Structure (SMILES): Oc1cccc(-c2ccccc2)c1 [Compound 1]
- Kd [4]: 1100 µM

Structure (SMILES): O=Cc1ccc(-c2ccccc2)cc1 [Compound 5]
- Kd [4]: 1700 µM

Structure (SMILES): O=C(Nc1ccccc1)c1ccc(O)cc1 [Compound 32]
- Kd (FKBP [3]): 500 µM

Structure (SMILES): c1cc(-c2ccncc2)ccn1 [Compound 10]
- Kd [4]: 400 µM
- Kd ([4]; read-out: NMR KD, Table 3, in the presence of 500 mM acetohydroxamic acid): 400 µM
- Ki [5]: 1800 µM

Structure (SMILES): N#Cc1ccc(-c2ccc(OCCCCCC(=O)NO)cc2)cc1 [Compound 28]
- IC50 (Stromelysin): 1.7 µM

Structure (SMILES): Oc1ccc(-c2ccc(Br)cc2)cc1 [Compound 3]
- Kd [4, 8]: 1300 µM
